Assay results reported in patent US20230146455A1, “TREATMENT OF INFLAMMATORY DISEASES WITH PEPTIDES AND PHARMACEUTICAL COMPOSITIONS” (Yuyu Pharma, Inc., priority 2020, published 2023).
“And” between values parts separate entries of the source, which are not always exact repeats. Equal values may be shown once. Where a SMILES comes first, the peptide text is derived from it. [ ]: non-standard residue; d: D form. Hyp = O=C(O)[C@@H]1C[C@@H](O)CN1

What was measured:
TIMP-1 = assay: Example 8 main study Luminex, LPS hPBMCs: TIMP-1; format: cell-based, human; conditions: PBMC + LPS(5 ug/ml)
Method: (§1) Human PBMCs were pretreated with YY-101, YDE-011, YDE-043 or reference compound; Xiidra® at various concentration (ranging from […] to 500 nM) for 2 h before stimulation. An equal volume of 0.5% DMSO was used as a vehicle control. Then, the cells were treated with LPS at 5 ug/ml, which was selected based on the pilot study. The supernatants from treated cells were harvested at 24 h and placed in a 96 well for Luminex cytokine & chemokine profiling using a Luminex 200 multiplex assay (Luminex; R&D system, USA).
(§2) The main study arm with triplicate wells per group in a 24-well plate: • 1. Blank • 2. PBMC: 0.5% DMSO • 3. PBMC+LPS (5 ug/ml) • 4. PBMC+YY-101 500 nM • 5. PBMC+YY-101 50 nM • 6. PBMC+YY-101 5 nM • 7. PBMC+YY-101 0.5 nM • 8. PBMC+LPS (5 ug/ml)+Xiidra® 500 nM • 9. PBMC+LPS (5 ug/ml)+Xiidra® 50 nM • 10. PBMC+LPS (5 ug/ml)+Xiidra® 5 nM • 11. PBMC+LPS (5 ug/ml)+Xiidra® 0.5 nM • 12. PBMC+LPS (5 ug/ml)+Xiidra® 0.05 nM • 13. PBMC+LPS (5 ug/ml)+Xiidra® 0.005 nM • 14. PBMC+LPS (5 ug/ml)+YY-101 500 nM • 15. PBMC+LPS (5 ug/ml)+YY-101 50 nM • 16. PBMC+LPS (5 ug/ml)+YY-101 5 nM • 17. PBMC+LPS (5 ug/ml)+YY-101 0.5 nM • 18. PBMC+LPS (5 ug/ml)+YY-101 0.05 nM • 19. PBMC+LPS (5 ug/ml)+YY-101 0.005 nM • 20. PBMC+LPS (5 ug/ml)+YDE-011 500 nM • 21. PBMC+LPS (5 ug/ml)+YDE-011 50 nM • 22. PBMC+LPS (5 ug/ml)+YDE-011 5 nM • 23. PBMC+LPS (5 ug/ml)+YDE-011 0.5 nM • 24. PBMC+LPS (5 ug/ml)+YDE-011 0.05 nM • 25. PBMC+LPS (5 ug/ml)+YDE-011 0.005 nM • 26. PBMC+LPS (5 ug/ml)+YDE-043 500 nM • 27. PBMC+LPS (5 ug/ml)+YDE-043 50 nM • 28. PBMC+LPS (5 ug/ml)+YDE-043 5 nM • 29. PBMC+LPS (5 ug/ml)+YDE-043 0.5 nM • 30. PBMC+LPS (5 ug/ml)+YDE-043 0.05 nM • 31. PBMC+LPS (5 ug/ml)+YDE-043 0.005 nM
(§3) Multiplex assay was used to measure 30 cytokines and chemokines. The 1:200 diluted cell supernatant and serial dilution of the standard were dispensed into a 96 well plate at 50 ul/well. Then, the pre-mixed cocktail of antibody-coated magnetic beads was dispensed at 50 ul/well and incubated at room temperature for 2 h in a horizontal orbital microplate shaker at 800±500 rpm. The beads were washed using a magnetic device to prevent loss. The biotin-antibody was dispensed in 50 ul of each well and incubated at room temperature for 1 h in a shaker at 800±500 rpm. After washing, streptavidin-PE was added at 50 ul/well and incubated at room temperature for 30 min in a shaker under the same conditions. Finally, after washing, wash buffer (100 ul/well) was added to the plate and incubated in a shaker for 2 min. The Luminex™ 200 setting were set according to the manufacturer's protocol. The data was calculated with a standard five-parameter logistic nonlinear regression analysis of the data (xPonent software 4.2, USA). Results were presented as concentration (ng/ml or pg/ml).

CCL2/MCP-1 = assay: Example 8 main study Luminex, LPS hPBMCs: CCL2/MCP-1; format: cell-based, human; conditions: for CCL2/MCP-1 Concentration: single replicates; for LPS-induced CCL-2 (in words): at as low as 5 μM, LPS 5 ug/mL 24 hrs
Method: as §1, §2, §3

[1] = PBMC + LPS(5 ug/ml) + YDE011 0.005 nM
[2] = PBMC + LPS(5 ug/ml) + YDE011 0.05 nM
[3] = PBMC + LPS(5 ug/ml) + YDE011 0.5 nM
[4] = PBMC + LPS(5 ug/ml) + YDE011 5 nM
[5] = PBMC + LPS(5 ug/ml) + YDE011 50 nM
[6] = PBMC + LPS(5 ug/ml) + YDE011 500 nM
[7] = PBMC + LPS(5 ug/ml) + YDE043 0.005 nM
[8] = PBMC + LPS(5 ug/ml) + YDE043 0.05 nM
[9] = PBMC + LPS(5 ug/ml) + YDE043 0.5 nM
[10] = PBMC + LPS(5 ug/ml) + YDE043 5 nM
[11] = PBMC + LPS(5 ug/ml) + YDE043 50 nM
[12] = PBMC + LPS(5 ug/ml) + YDE043 500 nM

Row | SMILES | TIMP-1 Concentration (pg/ml), Mean (TIMP-1; test article 0.005 nM) | TIMP-1 Concentration (pg/ml), single replicates (TIMP-1; test article 0.005 nM) | TIMP-1 Concentration (pg/ml), Mean (TIMP-1; test article 0.05 nM) | TIMP-1 Concentration (pg/ml), single replicates (TIMP-1; test article 0.05 nM) | TIMP-1 Concentration (pg/ml), Mean (TIMP-1; test article 0.5 nM) | TIMP-1 Concentration (pg/ml), single replicates (TIMP-1; test article 0.5 nM) | TIMP-1 Concentration (pg/ml), Mean (TIMP-1; test article 5 nM) | TIMP-1 Concentration (pg/ml), single replicates (TIMP-1; test article 5 nM) | TIMP-1 Concentration (pg/ml), Mean (TIMP-1; test article 50 nM) | TIMP-1 Concentration (pg/ml), single replicates (TIMP-1; test article 50 nM) | TIMP-1 Concentration (pg/ml), Mean (TIMP-1; test article 500 nM) | TIMP-1 Concentration (pg/ml), single replicates (TIMP-1; test article 500 nM) | LPS-induced CCL-2 (in words) (CCL2/MCP-1) | further results
1 | CC(C)C[C@H](NC(=O)CNC(=O)[C@H](CC(C)C)NC(=O)[C@H](CCC(N)=O)NC(=O)CNC(=O)[C@@H]1C[C@@H](O)CN1)C(=O)N[C@@H](C)C(=O)NCC(=O)N1CCC[C@H]1C(=O)N[C@@H](CCCCN)C(=O)O [YDE-011] (H-[Hyp]GQLGLAGPK-OH) | 4036.4 pg/mL | 4259.2 pg/ml (2×) and 3590.9 pg/ml | 4288.3 pg/mL | 4414.6 pg/mL and 3590.9 pg/mL and 4859.3 pg/mL | 4080.2 pg/mL | 3590.9 pg/mL and 3935.4 pg/mL and 4714.4 pg/mL | 4128.5 pg/mL | 4859.3 pg/mL and 3935.4 pg/mL and 3590.9 pg/mL | 4253.6 pg/mL | 3935.4 pg/mL and 4259.2 pg/mL and 4566.3 pg/mL | 3820.5 pg/mL | 3935.4 pg/ml (2×) and 3590.9 pg/ml | significantly reduced | CCL2/MCP-1 Concentration, Mean (CCL2/MCP-1; [1]): 4425.2 pg/mL; CCL2/MCP-1 Concentration (CCL2/MCP-1; [1]): 4425.5 pg/mL and 4528.4 pg/mL and 4321.5 pg/mL; CCL2/MCP-1 Concentration, Mean (CCL2/MCP-1; [2]): 4442.7 pg/mL; CCL2/MCP-1 Concentration (CCL2/MCP-1; [2]): 4425.5 pg/ml (2×) and 4477.1 pg/ml; CCL2/MCP-1 Concentration, Mean (CCL2/MCP-1; [3]): 4303.7 pg/mL; CCL2/MCP-1 Concentration (CCL2/MCP-1; [3]): 4425.5 pg/mL and 4269.1 pg/mL and 4216.3 pg/mL; CCL2/MCP-1 Concentration, Mean (CCL2/MCP-1; [4]): 4178.7 pg/mL; CCL2/MCP-1 Concentration (CCL2/MCP-1; [4]): 3893.1 pg/ml and 4321.5 pg/ml (2×); CCL2/MCP-1 Concentration, Mean (CCL2/MCP-1; [5]): 4173.5 pg/mL; CCL2/MCP-1 Concentration (CCL2/MCP-1; [5]): 4528.4 pg/mL and 3670.6 pg/mL and 4321.5 pg/mL; CCL2/MCP-1 Concentration, Mean (CCL2/MCP-1; [6]): 4170.5 pg/mL; CCL2/MCP-1 Concentration (CCL2/MCP-1; [6]): 4731.0 pg/mL and 3670.6 pg/mL and 4109.9 pg/mL
2 | CC(C)C[C@H](NC(=O)[C@H](CCC(N)=O)NC(=O)CNC(=O)[C@@H]1C[C@@H](O)CN1)C(=O)NCC(=O)O [YDE-043] (H-[Hyp]GQLG-OH; N-terminus and C-terminus assumed) | 4681.6 pg/mL | 3935.4 pg/mL and 5543.0 pg/mL and 4566.3 pg/mL | 4088.2 pg/mL | 4259.2 pg/mL and 4414.6 pg/mL and 3590.9 pg/mL | 4203.1 pg/mL | 4259.2 pg/mL and 4414.6 pg/mL and 3935.4 pg/mL | 4463.9 pg/mL | 4566.3 pg/ml (2×) and 4259.2 pg/ml | 4351.3 pg/mL | 3935.4 pg/mL and 4859.3 pg/mL and 4259.2 pg/mL | 4299.5 pg/mL | 4566.3 pg/ml (2×) and 3766.0 pg/ml | significantly reduced | CCL2/MCP-1 Concentration, Mean (CCL2/MCP-1; [7]): 4629.2 pg/mL; CCL2/MCP-1 Concentration (CCL2/MCP-1; [7]): 4425.5 pg/ml and 4731.0 pg/ml (2×); CCL2/MCP-1 Concentration, Mean (CCL2/MCP-1; [8]): 4545.3 pg/mL; CCL2/MCP-1 Concentration (CCL2/MCP-1; [8]): 4528.4 pg/mL and 4477.1 pg/mL and 4630.2 pg/mL; CCL2/MCP-1 Concentration, Mean (CCL2/MCP-1; [9]): 4390.9 pg/mL; CCL2/MCP-1 Concentration (CCL2/MCP-1; [9]): 4425.5 pg/ml (2×) and 4321.5 pg/ml; CCL2/MCP-1 Concentration, Mean (CCL2/MCP-1; [10]): 4562.3 pg/mL; CCL2/MCP-1 Concentration (CCL2/MCP-1; [10]): 4579.5 pg/mL and 4477.1 pg/mL and 4630.2 pg/mL; CCL2/MCP-1 Concentration, Mean (CCL2/MCP-1; [11]): 4578.9 pg/mL; CCL2/MCP-1 Concentration (CCL2/MCP-1; [11]): 4528.4 pg/mL and 4731.0 pg/mL and 4477.1 pg/mL; CCL2/MCP-1 Concentration, Mean (CCL2/MCP-1; [12]): 4630.2 pg/mL; CCL2/MCP-1 Concentration (CCL2/MCP-1; [12]): 4630.2 pg/mL
